Literature values in US20110245183A1, “Topical Uses of Szeto-Schiller Peptides” (priority 2010, published 2011).
Where no end group is shown, it is not given here. [ ]: non-standard residue; d: D form. Dmt = Cc1cc(O)cc(C)c1C[C@H](N)C(=O)O

Experiments:
isolated mitochondria = settings: MPP+ (1-methyl-4-phenylpyridium)
[1] = test system: Parkinson's Disease (PD) or Amyotrophic Lateral Sclerosis (ALS); settings: mice studies

Substance	MPP+-induced inhibition of ATP production (isolated mitochondria)	MPP+-induced inhibition of oxygen consumption (isolated mitochondria)	MPP+-induced mitochondrial swelling (isolated mitochondria)	effectiveness in the treatment of Parkinson's Disease (PD) or Amyotrophic Lateral Sclerosis (ALS) [1]	inhibiting LDL oxidation (LDL)
Phe-D-Arg-Phe-Lys-NH2 (F[dR]FK-NH2; N-terminus assumed; SMILES N=C(N)NCCC[C@@H](NC(=O)[C@@H](N)Cc1ccccc1)C(=O)N[C@@H](Cc1ccccc1)C(=O)N[C@@H](CCCCN)C(N)=O) [SS-20]	prevented	prevented	prevented	may be effective	–
D-Arg-2′,6′-Dmt-Lys-Phe-NH2 ([dR][Dmt]KF-NH2) [SS-31]	prevented	prevented	prevented	may be effective	as effective as SS-02
